The test in a line: Lipid Peroxidation (LPO) assay. Type of test: biochemical. As to conditions: 2% linoleic acid + 1% trolox in methanol, solar simulator UV dose 36x10^4 J/m^2; FIG. 2 column 2, negative control. From the text:
Lipids are present in the cell membrane bilayer. Peroxidation of lipids compromises the integrity of skin cells and […] the ageing process resulting in premature ageing. The LPO assay is designed to determine the level of LPO damage in the skin with and without external stresses such as UV exposure; and investigating whether early defence complex can protect against the UV induced LPO damage. K-assay LPO-CC004 lipid peroxidation kit (Kamiya biomedical company)˜500 assays containing— • Reagent 1 (liquid): Enzyme reagent (ascorbic oxidase, lipoprotein lipase, stabilizer, goods buffer, surfactants) • Reagent 2A: Lyophilised chromogen reagent (MCDP for 110 ml reagent 2B) • Reagent 2B: Buffer solution (liquid) (goods buffer, hemoglobin, surfactants) • Calibrator (liquid): (50 nmol/ml cumene hyderoperoxide) • D-squames (CuDerm Corp. Dalla, USA) • Linoleic acid (L.A) • Methanol (MeOH) • Deionised water (dH2O) • 96 well flat bottom clear plate • Plate reader Unless otherwise stated all the samples were prepared weight per volume in methanol. […] Absorbance was read at 675 nm. For each well, the methanol background reading was subtracted from the absorbance reading. […] As samples were run in triplicate, the mean of each sample was then calculated. […]

Regarding `Cc1c(C)c2c(c(C)c1O)CCC(C)(C(=O)O)O2` (stereo not shown) [Trolox], the “oxidation (lipid peroxidation, absorbance at 675 nm)” value is reported as “very low oxidation”.

The record behind these values is patent US20180110721A1, “TOPICAL COSMETIC COMPOSITIONS AGAINST FREE RADICALS” (THE BOOTS COMPANY PLC, priority 2015, published 2018).
